We go through 29 compounds from patent US7582803B2 (Amgen Inc., priority 2005, dated 2009).

A value given as a limit tells only on which side of the number the result lay.

The target in the assay is T1, human GPR40 (Homo sapiens, UniProt O14842).
T1 construct: expressed in transfected cells; host or cells: CHO cells
T1 sequence (O14842 whole entry): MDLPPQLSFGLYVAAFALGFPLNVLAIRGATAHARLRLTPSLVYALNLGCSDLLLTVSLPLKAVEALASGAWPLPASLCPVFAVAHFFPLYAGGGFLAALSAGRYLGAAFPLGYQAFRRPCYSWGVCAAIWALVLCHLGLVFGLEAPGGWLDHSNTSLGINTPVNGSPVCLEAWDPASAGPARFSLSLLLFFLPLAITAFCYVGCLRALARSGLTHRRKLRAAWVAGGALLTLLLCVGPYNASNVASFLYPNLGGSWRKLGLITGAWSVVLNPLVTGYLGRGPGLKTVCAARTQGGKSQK
Description: Cell-based aequorin assay. The conditions noted are these: CHO cells stably transfected with GPR40 and aequorin; 0.01% HSA; aequorin luminescence; read-out: Relative EC50. Here is the method:
Cell-based aequorin assays were employed to characterize the modulatory activity of compounds on the GPR40 signaling pathway. In an exemplary assay, CHO cells were stably transfected with both GPR40 and Aequorin (Euroscreen). Cells were detached from the tissue culture dish with 2 mL of trypsin (0.25% (w/v)). Trypsinization was halted with 28 mL of Hanks Buffered Salt Solution containing 20 mM Hepes (H/HBSS) and 0.01% fatty acid-free human serum albumin (HSA). Coelantrazine is added to 1 ug/mL, and the cells were incubated for 2 hours at room temperature. Compounds were dissolved in DMSO for preparation of 10 mM stock solutions. Compounds were diluted in H/HBSS containing 0.01% HSA. Serial dilutions of the test compounds were prepared to determine dose response.
Aequorin luminescence measurements were made using an EG&G Berthold 96-well luminometer, and the response was measured over a 20 second interval after cells and compounds were mixed. The maximum relative light units was plotted to determine dose response. The EC50 (effective concentration to reach 50% maximal response) was determined from the dose response plot.
Table 1 presents representative data (EC50 values) obtained for exemplary compounds of the invention for the relative activation of human GPR40. […]
In general, EC50 refers to the concentration giving half of the maximal effect. As for `CC1(C)CCC(C)(C)c2cc(COc3ccc([C@H](CC(=O)O)c4ccc(F)cc4)cc3)ccc21` [Example 89, (S)-3-(4-Fluorophenyl)-3-(4-((5,5,8,8-tetramethyl-5,6,7,8-tetrahydronaphthalen-2-yl)methoxy)phenyl)propanoic acid], the EC50 was in the range of 100 to 1000 nM. The same measure for `CC#C[C@@H](CC(=O)O)c1ccc(OC2CCc3cc(-c4cc(OC)ccc4F)ccc32)cc1` (stereo partly drawn) [Example 55, (3S)-3-(4-(5-(2-Fluoro-5-methoxyphenyl)-2,3-dihydro-1H-inden-1-yloxy)phenyl)hex-4-ynoic acid]: 100 to 1000 nM; for `CC#C[C@@H](CC(=O)O)c1ccc(OCCC2CCCCC2)cc1` [Example 69, (S)-3-(4-(2-cyclohexylethoxy)phenyl)hex-4-ynoic acid]: 100 to 1000 nM; for `CC#C[C@@H](CC(=O)O)c1ccc(OC2CCc3c(-c4cc(C)ccc4OCCCC)cccc32)cc1` (stereo partly drawn) [Example 8, (3S)-3-{4-[4-(2-Butoxy-5-methyl-phenyl)-indan-1-yloxy]-phenyl}-hex-4-ynoic acid]: 10 to 100 nM. The same measure for `CC1(C)CCC(C)(C)c2cc(COc3ccc([C@H](CC(=O)O)c4ccon4)cc3)ccc21` [Example 76, (S)-3-(Isoxazol-3-yl)-3-(4-((5,5,8,8-tetramethyl-5,6,7,8-tetrahydronaphthalen-2-yl)methoxy)phenyl)propanoic acid]: 10 to 100 nM. Turning to `CC#C[C@@H](CC(=O)O)c1ccc(O[C@H]2CCc3cc(Br)ccc32)cc1` [Example 45, (S)-3-(4-((S)-5-bromo-2,3-dihydro-1H-inden-1-yloxy)phenyl)hex-4-ynoic acid], the concentration giving a half-maximal response (EC50) fell in the range of 10 to 100 nM. For `Cn1cnnc1[C@@H](CC(=O)O)c1ccc(OCc2ccc3c(c2)C(C)(C)CCC3(C)C)cc1` [Example 84] the value was 100 to 1000 nM; for `O=C(O)CC1CCCc2cc(OC3Cc4ccccc4C3)ccc21` (racemic) [Example 53, (R/S)-2-(6-(2,3-Dihydro-1H-inden-2-yloxy)-1,2,3,4-tetrahydronaphthalen-1-yl)acetic acid], 100 to 1000 nM; for `CC#C[C@@H](CC(=O)O)c1ccc(OC2CCc3ccc(OC)cc32)cc1` (stereo partly drawn) [Example 17, (3S)-3-[4-(6-Methoxy-indan-1-yloxy)-phenyl]-hex-4-ynoic acid], 10 to 100 nM. Regarding `O=C(O)CC(c1ccc(OC2CCc3cc(Br)ccc32)cc1)n1cccn1` (centres unmarked) [Example 47, 3-(4-(5-Bromo-2,3-dihydro-1H-inden-1-yloxy)phenyl)-3-(1H-pyrazol-1-yl)propanoic acid], the 50% effective concentration (EC50) was 100 to 1000 nM.

Take `CC#C[C@@H](CC(=O)O)c1ccc(OC2CCc3ccc(-c4cc(C)ccc4OCCCC)cc32)cc1` (stereo partly drawn) [Example 12, (3S)-3-{4-[6-(2-Butoxy-5-methyl-phenyl)-indan-1-yloxy]-phenyl}-hex-4-ynoic acid]: the EC50 lay within 10 to 100 nM.

As for `O=C(O)CC(c1ccc(OC2Cc3ccccc3C2)cc1)c1ncco1` (racemic) [Example 32, (+/−)-3-(4-(2,3-Dihydro-1H-inden-2-yloxy)phenyl)3-(oxazol-2-yl)propanoic acid], the EC50 lay in the range of 1000 to 10000 nM. Regarding `Cc1cc2c(cc1COc1ccc([C@H](CC(=O)O)c3nccn3C)cc1)C(C)(C)CCC2(C)C` [Example 93, (S)-3-(4-((3-Methyl-5,5,8,8-tetramethyl-5,6,7,8-tetrahydronaphthalen-2-yl)methoxy)phenyl)-3-(1-methyl-1H-imidazol-2-yl)propanoic acid], the half-maximal effective concentration (EC50) was 100 to 1000 nM. For `CC#C[C@@H](CC(=O)O)c1ccc(OC2CCc3ccc(-c4ccc(C(F)(F)F)cc4)cc32)cc1` (stereo partly drawn) [Example 11, (3S)-3-(4-(6-(4-(trifluoromethyl)phenyl)-2,3-dihydro-1H-inden-1-yloxy)phenyl)hex-4-ynoic acid] the value was 10 to 100 nM; for `CC#C[C@H](CC(=O)O)c1ccc(OC2CCc3cc(-c4cc(OCC)ccc4F)ccc32)cc1` (stereo partly drawn) [Example 66, (3R)-3-(4-(5-(5-Ethoxy-2-fluorophenyl)-2,3-dihydro-1H-inden-1-yloxy)phenyl)hex-4-ynoic acid], above 10000 nM. The same measure for `CC#C[C@@H](CC(=O)O)c1ccc(OC2CCc3c(Br)cccc32)cc1` (stereo partly drawn) [Example 5, (3S)-3-[4-(4-Bromo-indan-1-yloxy)-phenyl]-hex-4-ynoic acid]: 10 to 100 nM; for `CC#C[C@@H](CC(=O)O)c1ccc(OC2CCc3c(-c4ccc(C(F)(F)F)cc4)cccc32)cc1` (some centres unmarked) [Example 7]: 10 to 100 nM. The same measure for `Cn1cnnc1[C@H](CC(=O)O)c1ccc(OCc2ccc3c(c2)C(C)(C)CCC3(C)C)cc1` [Example 83]: above 10000 nM; for `CC#C[C@@H](CC(=O)O)c1ccc(OC2CCc3cc(C#N)ccc32)cc1` (stereo partly drawn) [Example 54, (3S)-3-(4-(5-Cyano-2,3-dihydro-1H-inden-1-yloxy)phenyl)hex-4-ynoic acid]: 10 to 100 nM; for `CC#C[C@H](CC(=O)O)c1ccc(OCC2CCCCC2)cc1` [Example 68, (R)-3-(4-(Cyclohexylmethoxy)phenyl)hex-4-ynoic acid]: 1000 to 10000 nM. For `CC#C[C@H](CC(=O)O)c1ccc(OC2CCc3cc(-c4ccc5c(c4)OCO5)ccc32)cc1` (stereo partly drawn) [Example 60, (3R)-3-(4-(5-(Benzo[d][1,3]dioxol-5-yl)-2,3-dihydro-1H-inden-1-yloxy)phenyl)hex-4-ynoic acid], the concentration for a half-maximal effect (EC50) was above 10000 nM. Regarding `CC#C[C@@H](CC(=O)O)c1ccc(OC2CCc3cc(Cl)ccc32)cc1` (stereo partly drawn) [Example 15, (3S)-3-[4-(5-Chloro-indan-1-yloxy)-phenyl]-hex-4-ynoic acid], the concentration giving a half-maximal response (EC50) was below 10 nM. On to `O=C(O)CC(c1ccc(OC2CCc3cc(Cl)ccc32)cc1)c1ncco1` (racemic) [Example 33, (+/−)-3-(4-(5-Chloro-2,3-dihydro-1H-inden-1-yloxy)phenyl)-3-(oxazol-2-yl)propanoic acid], for which the concentration giving a half-maximal response (EC50) was 1000 to 10000 nM. For `Cn1ccnc1[C@@H](CC(=O)O)c1ccc(OCc2ccc3c(c2)C(C)(C)CCC3)cc1` [Example 86, (S)-3-(4-((8,8-Dimethyl-5,6,7,8-tetrahydronaphthalen-2-yl)methoxy)phenyl)-3-(1-methyl-1H-imidazol-2-yl)propanoic acid] the value was 100 to 1000 nM.

As to `O=C(O)CC(c1ccc(OC2CCC(c3ccccc3)CC2)cc1)c1cccs1` (racemic) [Example 31, (+/−)-3-(4-(4-Phenylcyclohexyloxy)phenyl)-3-(thiophen-2-yl)propanoic acid], the EC50 was 1000 to 10000 nM. For `CC1(C)CCC(C)(C)c2cc(COc3ccc([C@@H](CC(=O)O)c4ccc(F)cc4)cc3)ccc21` [Example 90, (R)-3-(4-Fluorophenyl)-3-(4-((5,5,8,8-tetramethyl-5,6,7,8-tetrahydronaphthalen-2-yl)methoxy)phenyl)propanoic acid] the value was 1000 to 10000 nM; for `CC#C[C@@H](CC(=O)O)c1ccc(OC2CCc3c(OC)ccc(OC)c32)cc1` (stereo partly drawn) [Example 20, (3S)-3-[4-(4,7-Dimethoxy-indan-1-yloxy)-phenyl]-hex-4-ynoic acid], 100 to 1000 nM; for `CC#C[C@@H](CC(=O)O)c1ccc(O[C@@H]2CCc3cc(Br)ccc32)cc1` (single isomer, unassigned) [Example 44], 10 to 100 nM. For `O=C(O)CC(c1ccc(OC2Cc3ccccc3C2)cc1)c1c(F)cccc1F` (racemic) [Example 39, (+/−)3-(2,6-Difluorophenyl)-3-(4-(2,3-dihydro-1H-inden-2-yloxy)phenyl)propanoic acid] the value was 1000 to 10000 nM.
